Measured values taken from ChEMBL document CHEMBL1154184, “Rational design and synthesis of potent dibenzazepine motifs as beta-secretase inhibitors” (J Med Chem, 2009).

Each molecule was assayed against Beta-secretase 1 (Homo sapiens, UniProt P56817) (assay: Inhibition of human recombinant BACE1 by FRET assay).
Sequence of Beta-secretase 1 (P56817 whole entry): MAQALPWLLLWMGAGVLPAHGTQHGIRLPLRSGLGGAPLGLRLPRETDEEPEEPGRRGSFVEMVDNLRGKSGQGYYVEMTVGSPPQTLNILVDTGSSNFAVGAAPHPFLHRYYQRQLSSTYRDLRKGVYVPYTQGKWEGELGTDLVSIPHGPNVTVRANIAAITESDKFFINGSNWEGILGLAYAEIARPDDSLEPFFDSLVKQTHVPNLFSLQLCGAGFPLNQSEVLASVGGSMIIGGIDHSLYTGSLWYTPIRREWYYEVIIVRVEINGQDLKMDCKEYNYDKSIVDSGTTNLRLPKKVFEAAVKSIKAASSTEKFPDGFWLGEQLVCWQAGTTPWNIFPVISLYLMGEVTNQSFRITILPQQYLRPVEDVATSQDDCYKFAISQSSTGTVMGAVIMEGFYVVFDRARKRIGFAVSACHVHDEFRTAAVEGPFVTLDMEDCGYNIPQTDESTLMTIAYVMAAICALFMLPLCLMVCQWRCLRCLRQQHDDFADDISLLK

| Compound | Ki [nM] |
| --- | --- |
| O=C(Nc1nc2ccc(F)cc2[nH]1)c1ccc2c(c1)Nc1ccccc1NC2=O | 244 |
| O=C(Nc1ccc(F)cc1)c1ccc2c(c1)Nc1ccccc1NC2=O | 211 |
| O=C(Nc1nc(-c2ccc(F)cc2)c[nH]1)c1ccc2c(c1)Nc1ccccc1NC2=O | 293 |
| O=C(Nc1nc2ccncc2[nH]1)c1ccc2c(c1)Nc1ccccc1NC2=O | 309 |
| O=C(Nc1nc(-c2ccncc2)c[nH]1)c1ccc2c(c1)Nc1ccccc1NC2=O | 348 |
| O=C(Nc1ccncc1)c1ccc2c(c1)Nc1ccccc1NC2=O | 295 |
| C[C@@H](NC(=O)c1cc(NS(C)(=O)=O)cc(C(=O)N[C@@H](Cc2ccccc2)[C@@H](O)CNC2CC2)c1)c1ccc(F)cc1 | 10 |
